Experimental findings from patent US6399583B1, “Hybrid anthracyclines from genetically engineered streptomyces galilaeus strains, process for production and uses thereof” (Galilaeus Oy, priority 1998, dated 2002) are described below.

Molecules are shown by their SMILES. Where only a bound is given, the exact number is not on record here.

The first assay concerns MES-SA human uterine sarcoma cells. Put plainly: Cytotoxicity assay, luminescence ATP detection, MES-SA. Format: cell-based. As to conditions: three days incubation, ATP content, highest concentration 10^-5 M, read-out: ED50 (nM) MES-SA. How it is done:
(§1) The cytotoxicities of the new anthracyclines were tested in vitro with two cell lines: human uterine sarcomas MES-SA (CRL-1976; American Type Culture Collection (ATCC), Rockville, Md., USA) and MES-SA/D×5 (CRL-1977; ATCC, Rockville, Md., USA). MES-SA/D×5 has been developed by growing MES-SA cells in increasing concentrations of doxorubicin (Harker and Sikic, 1985).
(§2) Monolayer cultures were grown in McCoy's 5A medium with L-glutamine (Gibco BRL) supplemented with 10% FBS (Foetal Bovine Serum, Gibco BRL). No antibiotics were added. As the resistance is stable for at least 20 passages, the MES-SA/D×5 cells were grown without anthracycline selection (Harker and Sikic, 1985). Cells were maintained at 37° C. with 5% CO2 and subcultured every 3-5 days.
(§3) The cytotoxicity tests were performed in 96-well microtiter plates (sterile white plates with clear bottom, Corning Costar Corporation, Cambridge, Mass., USA). The anthracyclines were pipetted into the plates in 10 μl of ethanol, pure ethanol was used for control plates. Daunorubicin and aclarubicin were used as positive controls. When the ethanol had evaporated, the cells were seeded into the plates in 100 μl of appropriate medium. The number of cells seeded per well was 2500 with MES-SA, 3000 with MES-SA/D×5, 3000 with LL/2, 2000 with B16-F0 and B16-F1, 2000 with KLN-205 and 8000 with MLTC-1. The ATP content of the cells was measured after incubating the cells for three days at 37° C. with 5% CO2.
(§4) The growth medium was removed by turning the plates over, and 200 μl of ATP extraction reagent, Somalyze, were added to the wells. The plates were then incubated for 30 minutes at room temperature. The ATP measurement was performed with Luminoskan luminometer (Labsystems Oy, Helsinki, Finland) at 22° C. 20 μl of ATP monitoring reagent containing luciferin and luciferase was dispensed, and an integral measurement of 10 s with 2 s lag time was performed for each well. All reagents used were supplied by Bio-Orbit Oy, Turku, Finland.
(§5) The direct luminometer output (in relative light units, RLUS) was used to calculate the cytotoxic effect. This light signal is directly proportional to the amount of […] in a wide range (determined with Bio-Orbit ATP standard, data not shown). On the other hand, the amount of ATP is directly proportional to the amount of living cells (Kangas et al., 1984). The results are expressed as percentages of the control value of untreated cells. An IC50 value (the drug concentration resulting to an ATP signal of 50% of the untreated control signal) was graphically estimated from the % of control vs. drug concentration plot.
Turning to `CCC1(O)CC(OC2CC(N(C)C)C(OC3CC(O)C(OC4CC(O)C(O)C(C)O4)C(C)O3)C(C)O2)c2c(cc3c(c2O)C(=O)c2c(O)cccc2C3=O)C1O` (stereo not shown) [Compound H075-2a], the EC50 stood at 3200 nM.

Turning to `CCC1(O)CC(OC2CC(N(C)C)C(OC3CC(O)C(O)C(C)O3)C(C)O2)c2c(cc3c(c2O)C(=O)c2c(O)cccc2C3=O)C1O` (stereo not shown) [Compound H075-2b], the EC50 was 400 nM.

For `CCC1(O)CC(OC2CC(O)C(OC3CC(O)C(OC4CC(O)C(O)C(C)O4)C(C)O3)C(C)O2)c2c(cc3c(c2O)C(=O)c2c(O)cccc2C3=O)C1O` (stereo not shown) [Compound H075-2d], the EC50 was > 10000 nM.

Turning to `COC(=O)C1c2cc3c(c(O)c2C(OC2CC(O)C(OC4CC(O)C(OC5CC(O)C(O)C(C)O5)C(C)O4)C(C)O2)CC1(C)O)C(=O)c1c(O)cccc1C3=O` (stereo not shown) [Compound H075-3d], the EC50 was > 10000 nM.

Regarding `COC(=O)C1c2c(O)c3c(c(O)c2C(OC2CC(O)C(OC4CC(O)C(O)C(C)O4)C(C)O2)CC1(C)O)C(=O)c1c(O)cccc1C3=O` (stereo not shown) [Compound H075-5e], the EC50 amounted to 5200 nM.

As for `CC1OC(OC2C(C)OC(OC3CC(C)(O)C(O)c4cc5c(c(O)c43)C(=O)c3c(O)cccc3C5=O)CC2N(C)C)CC(O)C1O` (stereo not shown) [Compound H075-6b], the EC50 stood at 200 nM.

In the case of `CC1OC(OC2CC(C)(O)C(O)c3cc4c(c(O)c32)C(=O)c2c(O)cccc2C4=O)CC(N(C)C)C1O` (stereo not shown) [Compound H075-6c], the EC50 worked out at 4200 nM.

On to `CCC1(O)Cc2cc3c(c(O)c2C(OC2CC(N(C)C)C(OC4CC(O)C(OC5CC(O)C(O)C(C)O5)C(C)O4)C(C)O2)C1)C(=O)c1c(O)cccc1C3=O` (stereo not shown) [Compound H075-8a], for which the EC50 stood at 130 nM.

Consider `CCC1(O)CC(OC2CC(N(C)C)C(OC3CC(O)C(OC4CC(O)C(O)C(C)O4)C(C)O3)C(C)O2)c2c(O)c3c(c(O)c2C1O)C(=O)c1cccc(O)c1C3=O` (stereo not shown) [Compound H075-10a], for which the EC50 came to 30 nM.

As for `CC1OC(OC2C(C)OC(OC3CC(C)(O)C(O)c4c(O)c5c(c(O)c43)C(=O)c3c(O)cccc3C5=O)CC2N(C)C)CC(O)C1O` (stereo not shown) [Compound H075-11b], the EC50 is 60 nM.

Turning to `CC1OC(OC2C(O)CC(OC3CC(C)(O)C(O)c4c(O)c5c(c(O)c43)C(=O)c3c(O)cccc3C5=O)OC2C)CC(O)C1O` (stereo not shown) [Compound H075-11e], the EC50 is 800 nM.

For the next assay, the system named is MES-SA/D×5 uterine sarcoma cells (doxorubicin-resistant, MDR). Put plainly: Cytotoxicity assay, luminescence ATP detection, MES-SA/D×5. Format: cell-based, human. As to conditions: MES-SA/D×5 cells, three days incubation, ATP content; highest concentration 10^-5 M; read-out: ED50 (nM) MES-SA/D × 5. How it is done:
as §1, §2, §3, §4, §5
Consider `CCC1(O)CC(OC2CC(N(C)C)C(OC3CC(O)C(OC4CC(O)C(O)C(C)O4)C(C)O3)C(C)O2)c2c(cc3c(c2O)C(=O)c2c(O)cccc2C3=O)C1O` (stereo not shown) [Compound H075-2a], for which the EC50 was > 10000 nM.

As for `CCC1(O)CC(OC2CC(N(C)C)C(OC3CC(O)C(O)C(C)O3)C(C)O2)c2c(cc3c(c2O)C(=O)c2c(O)cccc2C3=O)C1O` (stereo not shown) [Compound H075-2b], the EC50 was > 10000 nM.

Regarding `CCC1(O)CC(OC2CC(O)C(OC3CC(O)C(OC4CC(O)C(O)C(C)O4)C(C)O3)C(C)O2)c2c(cc3c(c2O)C(=O)c2c(O)cccc2C3=O)C1O` (stereo not shown) [Compound H075-2d], the EC50 is > 10000 nM.

In the case of `COC(=O)C1c2cc3c(c(O)c2C(OC2CC(O)C(OC4CC(O)C(OC5CC(O)C(O)C(C)O5)C(C)O4)C(C)O2)CC1(C)O)C(=O)c1c(O)cccc1C3=O` (stereo not shown) [Compound H075-3d], the EC50 was > 10000 nM.

For the molecule `COC(=O)C1c2c(O)c3c(c(O)c2C(OC2CC(O)C(OC4CC(O)C(O)C(C)O4)C(C)O2)CC1(C)O)C(=O)c1c(O)cccc1C3=O` (stereo not shown) [Compound H075-5e], the EC50 is > 10000 nM.

For `CC1OC(OC2C(C)OC(OC3CC(C)(O)C(O)c4cc5c(c(O)c43)C(=O)c3c(O)cccc3C5=O)CC2N(C)C)CC(O)C1O` (stereo not shown) [Compound H075-6b], the EC50 is > 10000 nM.

Take `CC1OC(OC2CC(C)(O)C(O)c3cc4c(c(O)c32)C(=O)c2c(O)cccc2C4=O)CC(N(C)C)C1O` (stereo not shown) [Compound H075-6c]: the EC50 was > 10000 nM.

With `CCC1(O)Cc2cc3c(c(O)c2C(OC2CC(N(C)C)C(OC4CC(O)C(OC5CC(O)C(O)C(C)O5)C(C)O4)C(C)O2)C1)C(=O)c1c(O)cccc1C3=O` (stereo not shown) [Compound H075-8a], the EC50 is > 10000 nM.

Turning to `CCC1(O)CC(OC2CC(N(C)C)C(OC3CC(O)C(OC4CC(O)C(O)C(C)O4)C(C)O3)C(C)O2)c2c(O)c3c(c(O)c2C1O)C(=O)c1cccc(O)c1C3=O` (stereo not shown) [Compound H075-10a], the EC50 was 1300 nM.

Regarding `CC1OC(OC2C(C)OC(OC3CC(C)(O)C(O)c4c(O)c5c(c(O)c43)C(=O)c3c(O)cccc3C5=O)CC2N(C)C)CC(O)C1O` (stereo not shown) [Compound H075-11b], the EC50 was 3500 nM.

`CC1OC(OC2C(O)CC(OC3CC(C)(O)C(O)c4c(O)c5c(c(O)c43)C(=O)c3c(O)cccc3C5=O)OC2C)CC(O)C1O` (stereo not shown) [Compound H075-11e]: the EC50 was > 10000 nM.

The next assay has as its system P388 leukemia. In words: Cytotoxic activity in vivo: P388 leukemia model. Also noted: species or system mice. To be noted: 4 mg/kg i.p. on day 1; 10^6 P388 cells i.p. day 0. The source says: P388 leukemia was maintained by serial intraperitoneal (i.p.) transplantations in DBA/2JBom female mice purchased from M & B A/S, Ry, Denmark. The animals were maintained at the facilities of Central Animal Laboratory, University of Turku. The management of the animal unit is based on and followed the guidelines: “European Convention for the protection of Vertebrate Animals used for Experimental and other Scientific Purposes, European Treaty Series No. 123 (EU No. 609/86), Official Journal of European Communities No. L 358, Strasbourg Nov. 24, 1986”, and “The Statute No. 1360/90 of the Finnish Law, Helsinki Dec. 21, 1990: Asetus kokeellisiin ja muihin tieteellisiin tarkoituksiin käytettävien selkärankaisten eläinten suojelemiseksi tehdyn eurooppalaisen yleissopimuksen voimaansaattamisesta. Suomen s{umlaut over (aa)}doskokoelma.”
The in vivo tests were started by injecting 10^6 P388 cells suspended in Dulbecco's phosphate buffered saline i.p. in mice on day 0. Groups of 3 mice were used. The drugs were administered i.p. on day 1 on the basis of individual body weight. The control group received vehicle (10% ethanol in Dulbecco's phosphate buffered saline).
For `CCC1(O)CC(OC2CC(N(C)C)C(OC3CC(O)C(OC4CC(O)C(O)C(C)O4)C(C)O3)C(C)O2)c2c(O)c3c(c(O)c2C1O)C(=O)c1cccc(O)c1C3=O` (stereo not shown) [Compound H075-10a], the “Median survival days (range)” value was 15 (14-17) days.

On to `CC1OC(OC2C(C)OC(OC3CC(C)(O)C(O)c4c(O)c5c(c(O)c43)C(=O)c3c(O)cccc3C5=O)CC2N(C)C)CC(O)C1O` (stereo not shown) [Compound H075-11b], for which the “Median survival days (range)” value was 13 (12-13) days.

Still in this assay, the particulars now being: 8 mg/kg i.p. on day 1; 10^6 P388 cells i.p. day 0.
As for `CCC1(O)CC(OC2CC(N(C)C)C(OC3CC(O)C(OC4CC(O)C(O)C(C)O4)C(C)O3)C(C)O2)c2c(O)c3c(c(O)c2C1O)C(=O)c1cccc(O)c1C3=O` (stereo not shown) [Compound H075-10a], the “Median survival days (range)” value was 14 (13-15) days.

Take `CC1OC(OC2C(C)OC(OC3CC(C)(O)C(O)c4c(O)c5c(c(O)c43)C(=O)c3c(O)cccc3C5=O)CC2N(C)C)CC(O)C1O` (stereo not shown) [Compound H075-11b]: the “Median survival days (range)” value is 14 (13-15) days.

Staying with this assay, now noted: 16 mg/kg i.p. on day 1; 10^6 P388 cells i.p. day 0.
Consider `CCC1(O)CC(OC2CC(N(C)C)C(OC3CC(O)C(OC4CC(O)C(O)C(C)O4)C(C)O3)C(C)O2)c2c(O)c3c(c(O)c2C1O)C(=O)c1cccc(O)c1C3=O` (stereo not shown) [Compound H075-10a], for which the “Median survival days (range)” value is listed as 14 (14-15) days.

`CC1OC(OC2C(C)OC(OC3CC(C)(O)C(O)c4c(O)c5c(c(O)c43)C(=O)c3c(O)cccc3C5=O)CC2N(C)C)CC(O)C1O` (stereo not shown) [Compound H075-11b]: the “Median survival days (range)” value is given as 16 (15-19) days.
